“And” between values parts separate entries of the source, which are not always exact repeats. Equal values may be shown once.
How the values were obtained:
CYP2D6 = CYP2D6 (Homo sapiens, UniProt P10635); experiment: CYP inhibition, CYP2D6; format: in vitro ADME
Protocol: At pre-set time-points, blood concentration of JH4 was determined by LC-MS/MS analysis[22],[23]. Other chemicals were also tested using similar protocol. In vitro ADME studies (plasma protein binding, CYP inhibition, microsomal stability, plasma stability, and hERG inhibition) were performed by New Drug Development Center (Daegu, Korea) using standard protocols[24],[25].

[1] = Maximum tolerated dose study in Beagle dogs, escalated-dose oral administration; format: in vivo; settings: both sexes, beagle, dog, in vivo; oral gavage, dose escalation
Description: The protocol and procedures involving the care and use of animals in this study was reviewed and approved by IACUC of QuBEST BIO prior to conduct (Approval no.: QBSIACUC-A18142). During the study, the care and use of animals will be conducted in accordance with all applicable guidelines of Animal Welfare Act. Non-naive one male and one female Beagle dogs (~16–24 months old, original supplier: ORIENTBIO Co., Ltd, Korea) were selected from the stock colony and assigned for the study. The route of administration was the oral (by gavage) route, which is the anticipated clinical route of exposure. Test article formulations were administered once via oral gavage. The day of 1st dosing was designated as Day 1. Each dose was administered via a syringe attached with 12-french feeding tube. A dose volume of 5 ml/kg was used and individual dose volumes were based on the most recent body weight. Each dose was followed by a distilled water of 5 ml. Each animal was observed twice daily (a.m. and p.m.) for mortality and moribundity; findings were recorded as they were observed. Cage side observations were made for each animal once daily; abnormal findings were recorded. […] Body weights were measured prior to each dosing. […] Prior to dosing and ~24 h post each dose, blood was collected as the same method and frequency with hematology analysis using no anticoagulant and then serum was separated by centrifugation and stored at freezer until analyze (AU 400, Olympus, Japan; […] 744 Na^+/K^+/[…] Analyzer, SIEMENS, Germany). In terminal procedures, all surviving animals were returned to the stock colony without necropsy. Toxicity studies were performed by QuBEST BIO Co., Ltd (Yongin, Korea).
The objective of this study was to determine the maximum tolerated dose (MTD) of SLC-D011 following dose escalation by oral gavage to Beagle dogs.
The study group was detailed in Text Table 1.
Text Table 1. Study Group
Dose Level Dose Conc. No. of Animals†
Group Treatment (mg/kg) (mg/mL)
†: Animals were re-used for each dose with at least 4-day wash-out period.
The following parameters were evaluated in this study: mortality, clinical signs, body weights and clinical pathology parameters (hematology and serum biochemistry).
Mortality and Clinical Observations
All animals survived until end of the study. Test article-related clinical observations were limited to oily soft stool in the 100 mg/kg/day group animals and vomitus (frothy) and soft sto ol in the 400 […]
Clinical Pathology Parameters (Hematology and Serum Chemistry) […]
the 100 and 400 mg/kg group animals on approximately 24 hours post each dose, compared to pre […]
Based on the results of this study, the maximum tolerated dose (MTD) of SLC-D011 was considered to […]
Test article formulations were administered once via oral gavage. The day of 1st dosing was designated […]
Each dose was administered via a syringe attached with 12-french feeding tube. A dose volume of 5 mL/kg was used and individual dose volumes were based on the most recent body weight. Each dose was followed by a distilled water of 5 mL. […]
Each animal was observed twice daily (a.m. and p.m.) for mortality and moribundity; findings were recorded as they were observed. Cage side observations were made for each animal once daily; abnormal findings were recorded. Detailed observations were made for each animal once prior to treatment; abnormal findings (ranked/graded, if appropriate) or an indication the animal appears […]
Body weights were measured prior to each dosing. […]
Prior to each dosing and approximately 24 hours post each dose, blood samples for hematology examination were collected from the via cephalic vein into tubes with K2EDTA anticoagulant and […]
Parameters Unit Measurement Method
ⓐ RBC (Red blood cell count) 106/μL Electric Impedance […]
ⓒ HGB (Hemoglobin conc.) g/dL Cyanmethemoglobin […]

HGPS cells = experiment: Ki67-positive cells in HGPS cells; format: cell-based, human; settings: for Ki67 positive cells/total cells: AG03199; for Ki67 positive cells/total cells (ratio): AG11498, 3 days
Protocol: A. In vivo pharmacokinetic (PK) analysis of JH010 (performed in rats). […] B Effect of SLC-D011 on human ERG (hERG). […] C In vivo pharmacokinetic analysis of SLD-D011. […] HEK293 cells transiently transfected with GFP-PG vectors were treated with SLC-D011 for 24 hr (n = 3 independent experiment; two-tailed Student’s t test). […] “Con” means dimethyl sulfoxide (DMSO)-treated control.
Cells were cultured on coverslips, washed with PBS, fixed with 4% paraformaldehyde (PFA) for 30 min at RT, and then permeabilized with 0.2% Triton X-100 at RT for 5 min. After treatment with blocking solution (anti-Human antibody diluted 1:400 in PBS) for 1 h, cells were incubated with anti-lamin A/C (1:400), anti-progerin (1:100), Ki67 (1:200), and anti-H3K9me3 (1:200) in blocking buffer overnight at 4 °C. Finally, cells were incubated with fluorescein isothiocyanate and rhodamine-conjugated secondary antibodies at 4 °C for 7 h. Nuclei were stained with DAPI (4, 6-diamidino-2-phenylindole) at RT for 10 min. After cells were washed three times with PBS, coverslips were mounted with mounting solution (H-5501; Vector Laboratories, Burlingame, CA, USA). Immunofluorescence signal was detected with a fluorescence microscopy (Zeiss and Logos).
HGPS cells were treated with SLC-D011 at a low concentration ( from 10
nM to 5μM) for 3 days. C. […]
[…] DAPI indicated DNA.

Chain of CYP2D6 (P10635 whole entry): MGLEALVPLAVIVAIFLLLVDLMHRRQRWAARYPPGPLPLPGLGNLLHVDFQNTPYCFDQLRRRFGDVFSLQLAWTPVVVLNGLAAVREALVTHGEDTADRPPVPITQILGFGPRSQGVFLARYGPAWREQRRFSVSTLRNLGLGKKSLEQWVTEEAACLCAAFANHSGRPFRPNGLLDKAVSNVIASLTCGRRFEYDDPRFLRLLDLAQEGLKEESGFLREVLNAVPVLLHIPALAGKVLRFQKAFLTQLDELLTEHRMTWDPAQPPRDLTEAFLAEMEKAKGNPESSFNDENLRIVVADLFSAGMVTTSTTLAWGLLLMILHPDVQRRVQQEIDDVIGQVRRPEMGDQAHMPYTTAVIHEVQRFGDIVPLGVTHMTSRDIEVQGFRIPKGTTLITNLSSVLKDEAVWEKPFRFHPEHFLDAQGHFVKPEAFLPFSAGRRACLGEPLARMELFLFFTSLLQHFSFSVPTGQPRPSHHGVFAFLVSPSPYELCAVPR

CC1(C)Oc2cc3oc(=O)ccc3cc2C[C@@H]1OC/C=C/c1ccccc1 [SLC-D011]
CYP inhibition (CYP2D6): 91.7
MTD [1]: > 400 mg/kg
Ki67 positive cells/total cells (HGPS cells; 10nM, Ave): 0.1497 ratio
Ki67 positive cells/total cells (HGPS cells; 10nM, individual replicate): 0.0625 ratio and 0.2083 ratio and 0.1538 ratio and 0.1646 ratio and 0.1594 ratio
Ki67 positive cells/total cells (HGPS cells; 50nM, Ave): 0.369 ratio
Ki67 positive cells/total cells (HGPS cells; 50nM, individual replicate): 0.2857 ratio and 0.375 ratio and 0.4444 ratio and 0.5 ratio and 0.24 ratio
Ki67 positive cells/total cells (HGPS cells; 100nM, Ave): 0.418 ratio
Ki67 positive cells/total cells (HGPS cells; 100nM, individual replicate): 0.275 ratio and 0.3214 ratio and 0.4286 ratio and 0.44 ratio and 0.625 ratio
Ki67 positive cells/total cells (HGPS cells; 500nM, Ave): 0.45 ratio
Ki67 positive cells/total cells (HGPS cells; 500nM, individual replicate): 0.3889 ratio and 0.5 ratio and 0.5714 ratio and 0.3684 ratio and 0.4211 ratio
Ki67 positive cells/total cells (HGPS cells; 1μM, Ave): 0.4556 ratio
Ki67 positive cells/total cells (HGPS cells; 1μM, individual replicate): 0.4146 ratio and 0.4286 ratio and 0.5 ratio and 0.4792 ratio
Ki67 positive cells/total cells (HGPS cells; 2μM, Ave): 0.479 ratio
Ki67 positive cells/total cells (HGPS cells; 2μM, individual replicate): 0.5 ratio (2×) and 0.44 ratio and 0.4762 ratio
Ki67 positive cells/total cells (HGPS cells; 5μM, Ave): 0.4663 ratio
Ki67 positive cells/total cells (HGPS cells; 5μM, individual replicate): 0.3571 ratio and 0.2857 ratio and 0.75 ratio and 0.5909 ratio and 0.3478 ratio
Ki67 positive cells/total cells (ratio) (HGPS cells; 10nM): 0.25 and 0.2222 and 0.2143 and 0.3
Ki67 positive cells/total cells (ratio) (HGPS cells; 10nM, mean): 0.2466
Ki67 positive cells/total cells (ratio) (HGPS cells; 50nM): 0.2857 and 0.3333 and 0.375 and 0.2
Ki67 positive cells/total cells (ratio) (HGPS cells; 50nM, mean): 0.2985
Ki67 positive cells/total cells (ratio) (HGPS cells; 100nM): 0.3333 and 0.3125 and 0.4 and 0.375
Ki67 positive cells/total cells (ratio) (HGPS cells; 100nM, mean): 0.3552
Ki67 positive cells/total cells (ratio) (HGPS cells; 500nM): 0.375 and 0.4444 and 0.4286
Ki67 positive cells/total cells (ratio) (HGPS cells; 500nM, mean): 0.4058
Ki67 positive cells/total cells (ratio) (HGPS cells; 1μM): 0.3333 and 0.4 and 0.6 and 0.375
Ki67 positive cells/total cells (ratio) (HGPS cells; 1μM, mean): 0.4271
Ki67 positive cells/total cells (ratio) (HGPS cells; 2μM): 0.4 and 0.375 and 0.4167
Ki67 positive cells/total cells (ratio) (HGPS cells; 2μM, mean): 0.3979
Concentration enough for inducing Ki67 expression (HGPS cells; HGPS cells): 100 nM

Source: PMC7782499, “Progerinin, an optimized progerin-lamin A binding inhibitor, ameliorates premature senescence phenotypes of Hutchinson-Gilford progeria syndrome” (Communications Biology, 2021)
